The assay relates to cathepsin targets. Briefly: Cathepsin targets of the compounds (Table 4). The conditions noted are these: cathepsin target(s) inhibited; General = all cathepsins. Format: biochemical, rat. As to the method: Also included in the table for comparison are known compounds JPMOEt and JPMOH (also known as JPM-565). See Meara and Rich, J. Med. Chem. 39:3357-3366, 1996; Bogyo et al, Chem. Biol. 7:27-38, 2000; and Joyce et al., Cancer Cell 5:443-453, 2004. The table also lists cathepsin targets and measured IC50 values for specific compounds. To determine these values, 1 mg/ml of rat liver lysate was incubated with a series of concentrations of the inhibitor for 20 minutes. Then, 1 ul of a radiolabled general cathepsin probe, DCG-04, was added to the solutions and incubated for 1 hour. After fixing and drying the gel, the residual enzyme activity was measured using ImageJ software. The measurements were then transferred to GraphPad Prism 4 to calculate the IC50 values.

Turning to `CCOC(=O)C1OC1C(=O)N[C@@H](CC(C)C)C(=O)N[C@@H](Cc1ccc(O)cc1)C(N)=O` (stereo partly drawn) [Compound 59], the Target result was “Cat B”.
As for `CC(C)C[C@H](NC(=O)[C@H]1OC1C(=O)N[C@H](C)c1ccccc1)C(=O)N[C@@H](Cc1ccc(O)cc1)C(N)=O` (stereo partly drawn) [Compound 29], the entry is “Cat B”.
Take `CCC[C@H](NC(=O)C1O[C@@H]1C(=O)NCCc1ccc(O)cc1)C(=O)NCCc1ccccn1` (stereo partly drawn) [Compound 120]: the Target entry is reported as “Cat B”.
The result for `CCNC(=O)C1OC1C(=O)N[C@@H](CC(C)C)C(=O)N[C@@H](Cc1ccc(O)cc1)C(N)=O` (stereo partly drawn) [Compound 33] reads “Cat B”; that for `Cc1ccc(C[C@H](NC(=O)C2OC2C(=O)NCCN2CCOCC2)C(=O)N[C@@H](Cc2ccc(O)cc2)C(N)=O)cc1` (stereo partly drawn) [Compound 4], “Cat B”.
As for `Cc1ccc(C[C@H](NC(=O)C2OC2C(=O)NCCCO)C(=O)N[C@@H](Cc2ccc(O)cc2)C(N)=O)cc1` (stereo partly drawn) [Compound 12], the entry is “Cat B”.
The result for `CC(C)C[C@H](NC(=O)C1O[C@H]1C(=O)NCCN1CCCCC1)C(=O)N[C@@H](Cc1ccc(O)cc1)C(N)=O` (stereo partly drawn) [Compound 49] reads “Cat B”.
`CC(C)C[C@H](NC(=O)C1OC1C(=O)NCCO)C(=O)N[C@@H](Cc1ccc(O)cc1)C(N)=O` (stereo partly drawn) [Compound 38]: the Target result is given as “Cat B”.
The result for `CC(C)C[C@H](NC(=O)[C@H]1OC1C(=O)NCCc1ccc(O)cc1)C(=O)NCCN1CCCCC1` (stereo partly drawn) [Compound 67] reads “Cat B”; that for `Cc1ccc(C[C@H](NC(=O)C2OC2C(=O)NCC(N)=O)C(=O)N[C@@H](Cc2ccc(O)cc2)C(N)=O)cc1` (stereo partly drawn) [Compound 15], “Cat B”.
The result for `CCC[C@H](NC(=O)[C@@H]1OC1C(=O)OCC)C(=O)NCCc1ccccn1` (stereo partly drawn) [Compound 124] reads “General”; that for `Cc1ccc(C[C@H](NC(=O)C2OC2C(=O)N[C@H](C)c2ccccc2)C(=O)N[C@@H](Cc2ccc(O)cc2)C(N)=O)cc1` (stereo partly drawn) [Compound 10], “Cat B”.
The result for `CCOC(=O)C1OC1C(=O)N[C@@H](Cc1ccc(C)cc1)C(=O)NCc1cccc2ccccc12` (stereo partly drawn) [Compound 119] reads “Cat Z”; that for `CCC[C@H](NC(=O)[C@H]1O[C@@H]1C(=O)OCC)C(=O)NCc1cccc2ccccc12` [Compound 105], “General”; that for `Cc1ccc(C[C@H](NC(=O)C2OC2C(=O)NCCN2CCCCC2)C(=O)N[C@@H](Cc2ccc(O)cc2)C(N)=O)cc1` (stereo partly drawn) [Compound 9], “Cat B”.
Turning to `Cc1ccc(C[C@H](NC(=O)C2O[C@@H]2C(=O)NN2CCN(C)CC2)C(=O)N[C@@H](Cc2ccc(O)cc2)C(N)=O)cc1` (stereo partly drawn) [Compound 11], the Target entry is on record as “Cat B”.
As for `CC(C)C[C@H](NC(=O)[C@H]1O[C@@H]1C(=O)NCc1cccc2ccccc12)C(=O)N[C@@H](Cc1ccc(O)cc1)C(N)=O` [Compound 27], the entry is “Cat B”; as for `Cc1ccc(C[C@H](NC(=O)C2OC2C(=O)NCC(C)C)C(=O)N[C@@H](Cc2ccc(O)cc2)C(N)=O)cc1` (stereo partly drawn) [Compound 17], “Cat B”.

For the origin of these results see patent US8673904B2, “Epoxide inhibitors of cysteine proteases” (The Board of Trustees of the Leland Stanford Junior …, priority 2006, dated 2014).
